Columns and labels:
[1] = target: T1, SPOTS complex (monomeric, with Sac1) (Saccharomyces cerevisiae, UniProt P25045+P40970+P53224, P53224:S51A/P53224:S52A/P53224:S53A); assay: colorimetric CoA release assay; assay type: biochemical; conditions: 30 µM PLP, 0.008% GDN, pH 6.8, RT, 1 h, FLAG-purified complex (mixture of SPOT and SPOTS), catalytic site Lcb1/Lcb2
T1 construct: gene LCB1; co-overexpressed in S. cerevisiae (GAL1 promoter); 3xFLAG inserted between codons 9 and 10 of LCB1, kept; GDN-solubilised; monomeric 1:1:1:1:1; Site chains differ by ligand (see pair conditions); The purified sample also holds Sac1-free SPOT monomer and dimer; with Serine palmitoyltransferase-regulating protein TSC3; Phosphoinositide phosphatase SAC1
T1 sequence (P25045 whole entry, one chain of several): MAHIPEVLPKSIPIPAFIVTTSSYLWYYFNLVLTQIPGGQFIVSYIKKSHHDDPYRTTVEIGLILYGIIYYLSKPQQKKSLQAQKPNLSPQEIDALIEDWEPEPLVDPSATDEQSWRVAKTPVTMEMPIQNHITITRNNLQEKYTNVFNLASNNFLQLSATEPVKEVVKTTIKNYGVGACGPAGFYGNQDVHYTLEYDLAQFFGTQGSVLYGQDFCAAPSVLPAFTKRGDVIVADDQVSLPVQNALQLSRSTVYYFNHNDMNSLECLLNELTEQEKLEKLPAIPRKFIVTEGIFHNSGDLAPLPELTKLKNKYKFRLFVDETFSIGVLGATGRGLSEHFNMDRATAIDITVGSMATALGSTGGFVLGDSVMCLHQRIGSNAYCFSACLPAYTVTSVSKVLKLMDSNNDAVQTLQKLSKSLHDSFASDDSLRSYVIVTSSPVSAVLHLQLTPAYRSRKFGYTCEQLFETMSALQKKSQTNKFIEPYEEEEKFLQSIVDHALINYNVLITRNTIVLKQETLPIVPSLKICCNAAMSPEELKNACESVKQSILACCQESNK
T1 sequence (P53224 whole entry S51A/S52A/S53A, one chain of several): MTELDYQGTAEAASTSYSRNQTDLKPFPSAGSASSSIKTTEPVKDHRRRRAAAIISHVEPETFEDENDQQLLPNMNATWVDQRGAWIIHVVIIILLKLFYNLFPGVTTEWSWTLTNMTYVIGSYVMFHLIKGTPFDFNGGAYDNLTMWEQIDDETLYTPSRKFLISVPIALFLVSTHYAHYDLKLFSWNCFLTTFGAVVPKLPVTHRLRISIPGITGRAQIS
T1 sequence (Q3E790 whole entry partner, one chain of several): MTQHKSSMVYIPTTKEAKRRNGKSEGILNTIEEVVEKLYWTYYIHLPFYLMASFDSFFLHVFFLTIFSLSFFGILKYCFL
T1 sequence (P32368 whole entry partner, one chain of several): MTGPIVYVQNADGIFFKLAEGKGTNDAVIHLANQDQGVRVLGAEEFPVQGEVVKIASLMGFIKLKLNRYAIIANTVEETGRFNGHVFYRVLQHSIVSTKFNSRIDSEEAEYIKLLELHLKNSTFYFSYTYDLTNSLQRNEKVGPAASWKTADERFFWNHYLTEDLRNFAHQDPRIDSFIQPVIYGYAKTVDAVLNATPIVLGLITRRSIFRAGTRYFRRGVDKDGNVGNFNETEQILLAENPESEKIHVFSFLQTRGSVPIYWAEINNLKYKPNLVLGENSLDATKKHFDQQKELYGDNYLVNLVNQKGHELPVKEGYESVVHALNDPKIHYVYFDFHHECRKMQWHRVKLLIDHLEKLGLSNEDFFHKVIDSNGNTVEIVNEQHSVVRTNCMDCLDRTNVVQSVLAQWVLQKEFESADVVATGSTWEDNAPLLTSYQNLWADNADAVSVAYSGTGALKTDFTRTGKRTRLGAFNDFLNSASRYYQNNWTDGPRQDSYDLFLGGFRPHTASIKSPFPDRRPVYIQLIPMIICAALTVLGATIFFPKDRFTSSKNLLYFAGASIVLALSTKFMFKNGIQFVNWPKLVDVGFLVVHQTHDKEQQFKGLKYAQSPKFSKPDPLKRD

[2] = target: T1, SPOTS complex (monomeric, with Sac1); assay: cryo-EM structure, […] Å; coupled enzymatic assay of bound sterol; assay type: binding; conditions: site: pocket of Lcb1 TM0a helix and Orm1 TM4, three molecules; co-purified endogenous lipid
SPOT complex (monomer) = target: T2, SPOT complex (monomer) (Saccharomyces cerevisiae, UniProt P25045+P40970+P53224, P53224:S51A/P53224:S52A/P53224:S53A); assay: cryo-EM structure, […] Å; assay type: binding; conditions: site: pocket of Lcb1 TM0a helix and Orm1 TM4, three molecules; co-purified endogenous lipid
T2 construct: gene LCB1; same preparation as P1, cryo-EM class without Sac1; monomeric; 3xFLAG inserted between codons 9 and 10 of LCB1; GDN-solubilised; Site chains differ by ligand (see pair conditions); with Serine palmitoyltransferase-regulating protein TSC3
T2 sequence (P25045 whole entry, one chain of several): as the sequence (P25045 whole entry, one chain of several) above
T2 sequence (P53224 whole entry S51A/S52A/S53A, one chain of several): as the sequence (P53224 whole entry S51A/S52A/S53A, one chain of several) above
T2 sequence (Q3E790 whole entry partner, one chain of several): as the sequence (Q3E790 whole entry partner, one chain of several) above

[3] = target: the molecule itself; assay: cryo-EM structure; single-particle cryo-EM of the FLAG-purified complex in GDN, 10 mg/ml; one dataset gave a C2 symmetric SPOT dimer, a SPOT monomer and a SPOTS monomer with Sac1

In the case of N[C@@H](CO)C(=O)O [L-serine], the “colorimetric CoA release assay” value ([1]; 100 µM palmitoyl-CoA) is reported as “release of CoA-SH from the SPT-catalyzed condensation of palmitoyl-CoA and L-serine”.

With CC(C)[C@@H](C)/C=C/[C@@H](C)[C@H]1CC[C@H]2C3=CC=C4C[C@@H](O)CC[C@]4(C)[C@H]3CC[C@]12C [ergosterol] the “cryo-EM structure, 3.3 Å; coupled enzymatic assay of bound sterol” value [2] was “Lcb1-TM0a directly interacts with three molecules of ergosterol” and the “cryo-EM structure, 3.4 Å” value (SPOT complex (monomer)) was “in which three structurally well-resolved ergosterol molecules are positioned”.

For CCCCCCCCCCCCCCCC(=O)SCCNC(=O)CCNC(=O)[C@H](O)C(C)(C)COP(=O)(O)OP(=O)(O)OC[C@H]1O[C@@H](n2cnc3c(N)ncnc32)[C@H](O)[C@@H]1OP(=O)(O)O [palmitoyl-CoA], the “colorimetric CoA release assay” value ([1]; 15 mM L-serine) was “release of CoA-SH from the SPT-catalyzed condensation of palmitoyl-CoA and L-serine”.

B1: Lcb2 (enzyme, S. cerevisiae)
chain: MSTPANYTRVPLCEPEELPDDIQKENEYGTLDSPGHLYQVKSRHGKPLPEPVVDTPPYYISLLTYLNYLILIILGHVHDFLGMTFQKNKHLDLLEHDGLAPWFSNFESFYVRRIKMRIDDCFSRPTTGVPGRFIRCIDRISHNINEYFTYSGAVYPCMNLSSYNYLGFAQSKGQCTDAALESVDKYSIQSGGPRAQIGTTDLHIKAEKLVARFIGKEDALVFSMGYGTNANLFNAFLDKKCLVISDELNHTSIRTGVRLSGAAVRTFKHGDMVGLEKLIREQIVLGQPKTNRPWKKILICAEGLFSMEGTLCNLPKLVELKKKYKCYLFIDEAHSIGAMGPTGRGVCEIFGVDPKDVDILMGTFTKSFGAAGGYIAADQWIIDRLRLDLTTVSYSESMPAPVLAQTISSLQTISGEICPGQGTERLQRIAFNSRYLRLALQRLGFIVYGVADSPVIPLLLYCPSKMPAFSRMMLQRRIAVVVVAYPATPLIESRVRFCMSASLTKEDIDYLLRHVSEVGDKLNLKSNSGKSSYDGKRQRWDIEEVIRRTPEDCKDDKYFVN
modifications: PLP forms an internal aldimine with K366
notes: Lcb2, catalytic subunit of serine palmitoyltransferase, S. cerevisiae; also called SPT subunit; source: S. cerevisiae, co-expressed with the other SPOTS subunits under the GAL1 promoter
B1: binds [3].

Source: PMC10550967, “Structure of the ceramide-bound SPOTS complex” (Nature Communications, 2023)
